Test results reported in patent publication US10676514B2, “CDCA1-derived peptide and vaccine containing same” (ONCOTHERAPY SCIENCE, INC., priority 2014, dated 2020).
Entries after “also recorded” stand apart in the source; their conditions may differ.

Assays:
[1] = tested on: COS7 cells transfected with CDCA1 and HLA-A*1101; assay: Specific CTL activity against target cells expressing CDCA1 and HLA-A*1101; format: cell-based, African green monkey; details: listed as CDCA1-A11-9-219
Text: A cDNA encoding the open-reading frame of a target gene or HLA-A*1101 was amplified by PCR. The PCR-amplified product was cloned into an expression vector. Either or both of the target gene-expressing vector and the HLA-A*1101-expressing vector were transfected into COS7, which is a cell line negative for the target gene and HLA, using Lipofectamine 2000 (Invitrogen) following the manufacturer's recommended protocol. Two days after transfection, the transfected cells were harvested using versene (Invitrogen), and used as the target cell for CTL activity assay (5×10^4 cells/well).
The CTL clone established against CDCA-A11-9-219 (SEQ ID NO: 7) was investigated for its ability to recognize target cells expressing CDCA1 and the HLA-A*1101 molecule. COS7 cells transfected with both full-length CDCA1 and the HLA-A*1101 gene (a specific model of target cells expressing CDCA1 and the HLA-A*1101 gene) were prepared as the target cell. COS7 cells transfected with either full-length CDCA1 or HLA-A*1101 were prepared as the control.

[2] = tested on: peptide-pulsed C1R-A03; assay: IFN-gamma ELISPOT assay of peptide-induced CTLs (HLA-A*0301); format: cell-based, human; details: CTLs induced from HLA-A*0301-positive donors, peptide-pulsed C1R-A03 vs control
Text: Monocyte-derived dendritic cells (DCs) were used as the antigen-presenting cell to induce a cytotoxic T lymphocyte (CTL) response against peptides presented on human leukocyte antigens (HLAs). As described in the other sections, DCs were generated in vitro (Nakahara S et al., Cancer Res 2003, 63(14): 4112-8). Specifically, peripheral-blood mononuclear cells isolated from healthy volunteers (HLA-A*0301-positive) with the Ficoll-Paque plus solution (Pharmacia) were separated by attaching to plastic tissue culture dishes (Becton Dickinson) and concentrated as a monocyte fraction. The monocyte-concentrated population was cultured in the presence of 1000 IU/ml granulocyte macrophage colony-stimulating factor (R&D System) and 1000 IU/ml interleukin(IL)-4 (R&D System) in an AIM-V medium (Invitrogen) containing 2% heat-inactivated autologous serum (AS). After seven days of culturing, the cytokine-induced DCs were pulsed with 20 micro-g/ml each of the synthesized peptides in an AIM-V medium at 37 degrees C. for three hours in the presence of 3 micro-g/ml beta 2-microglobulin. The generated cells appeared to express on their cell surface DC-associated molecules such as CD80, CD83, CD86 and HLA class II (data not shown). Next, these peptide-pulsed DCs were inactivated by X-ray irradiation (20 Gy), and mixed in a 1:20 ratio with autologous CD8^+ T cells obtained by positive selection using the CD8 Positive Isolation Kit (Dynal). These culture products were seeded in a 48-well plate (Corning). Each well was made to contain 1.5×10^4 peptide-pulsed DCs, 3×10^5 CD8^+ T cells and 10 ng/ml IL-7 (R&D System) in 0.5 ml of the AIM-V/2% AS medium. Three days later, these culture products were added with a final concentration of 20 IU/ml IL-2 (CHIRON). On day 7 and day 14, T cells were further stimulated with peptide-pulsed autologous DCs. The DCs were prepared every time by the same method as above. On day 21, after the third peptide stimulation, CTLs were examined against the peptide-pulsed C1R-A03 by a human interferon (IFN)-gamma enzyme-linked immunospot (ELISPOT) assay (Tanaka H et al., Br J Cancer 2001, 84(1): 94-9; Umano Y et al., Br J Cancer 2001, 84(8): 1052-7; Uchida N et al., Clin Cancer Res 2004, 10(24): 8577-86; Suda T et al., Cancer Sci 2006, 97(5): 411-9; Watanabe T et al., Cancer Sci 2005, 96(8): 498-506).
Specifically, peptide-pulsed C1R-A03 (1×10^4 cells/well) was prepared as the stimulator cell. The induced CTLs, i.e., CTL lines and CTL clones, were used as the responder cell. The IFN-gamma ELISPOT assay and IFN-gamma ELISA were performed according to the manufacturer's manual.

[3] = tested on: COS7 cells transfected with CDCA1 and HLA-A*0301; assay: Specific CTL activity against target cells expressing CDCA1 and HLA-A*0301; format: cell-based, African green monkey; details: for specific CTL activity of CTL clones: COS7 cells transfected with both CDCA1 and HLA-A*0301; for specific CTL activity of CTL clones against control cells: COS7 cells transfected with either full-length CDCA1 or HLA-A*0301
Text: A cDNA encoding the open-reading frame of a target gene or HLA-A*0301 was amplified by PCR. The PCR-amplified product was cloned into an expression vector. Either or both of the target gene-expressing vector and the HLA-A*0301-expressing vector were transfected into COS7, which is a cell line negative for the target gene and HLA, using Lipofectamine 2000 (Invitrogen) following the manufacturer's recommended protocol. Two days after transfection, the transfected cells were harvested using versene (Invitrogen), and used as the target cell for CTL activity assay (5×10^4 cells/well).
The CTL clones established against CDCA1-A03-9-219 (SEQ ID NO: 7) (a) and CDCA1-A03-10-400 (SEQ ID NO: 38) (b) were investigated for their ability to recognize target cells expressing CDCA1 and the HLA-A*0301 molecule. COS7 cells transfected with both full-length CDCA1 and the HLA-A*0301 gene (a specific model of target cells expressing CDCA1 and the HLA-A*0301 gene) were prepared as the target cell. COS7 cells transfected with either full-length CDCA1 or HLA-A*0301 were prepared as the control.

Row | Sequence | specific CTL activity of CTL clone ([1]; COS7 cells transfected with both CDCA1 and HLA-A*1101) | specific CTL activity of CTL clone against control cells ([1]; COS7 cells transfected with either full-length CDCA1 or HLA-A*1101) | peptide-specific CTL activity (IFN-gamma production) ([2]; listed as CDCA1-A03-9-219) | specific CTL activity of CTL clones ([3]; listed as CDCA1-A03-9-219) | specific CTL activity of CTL clones against control cells ([3]; listed as CDCA1-A03-9-219) | peptide-specific CTL activity (IFN-gamma production) ([2]; listed as CDCA1-A03-10-400) | specific CTL activity of CTL clones ([3]; listed as CDCA1-A03-10-400) | specific CTL activity of CTL clones against control cells ([3]; listed as CDCA1-A03-10-400)
1 | KTKRLNELK (a peptide derived from CDCA1) [SEQ ID NO: 7] | specific CTL activity; also recorded: potent CTL activity | a significant specific CTL activity was not shown; also recorded: a significant specific CTL activity was not detected | potent IFN-gamma production; also recorded: significant specific CTL activity | specific CTL activity; also recorded: potent CTL activity | a significant specific CTL activity was not shown; also recorded: a significant specific CTL activity was not detected |  |  | 
2 | KIKLGIQQLK (a peptide derived from CDCA1) [SEQ ID NO: 38] |  |  |  |  |  | potent IFN-gamma production; also recorded: significant specific CTL activity | specific CTL activity; also recorded: potent CTL activity | a significant specific CTL activity was not shown; also recorded: a significant specific CTL activity was not detected
